According to patent US20260200920A1, “SUBSTITUTED AMINOPYRIDINE COMPOUNDS FOR USE AS AKT1 INHIBITORS” (Atavistik Bio, Inc., priority 2023, published 2026):

Experiments:
[1] = molecular target: T1, human recombinant kinase full-length wildtype AKT1 (Homo sapiens, UniProt P31749); experiment: AKT1 kinase assay (wildtype, TR-FRET, Lance); type: biochemical; settings: 0.6 nM wildtype AKT1, 50 nM Ulight-CREBtide, either 50 μM ATP or 2 mM ATP, 60 min at RT
T1 construct: Purified human recombinant kinase full-length wildtype AKT1 was expressed in insect cells; made in house; host or cells: insect cells
In short: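 Insect-cell-expressed full-length human AKT1, PDPK1-activated (0.6 nM), preincubated with compound 15 min at RT, then reacted 60 min at RT with 50 nM ULight-CREBtide and 50 μM or 2 mM ATP (pH 7.5, 1% DMSO). Phospho-CREBtide read by Eu-anti-phospho-Ser133 TR-FRET (665/620 ratio); IC50 from 10-point 4-parameter fit.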

[2] = molecular target: T2, human recombinant kinase full-length AKT1 E17K (Homo sapiens, UniProt P31749, E17K); experiment: AKT1 E17K kinase assay (TR-FRET, Lance); type: biochemical; settings: 0.6 nM AKT1 E17K, 50 nM Ulight-CREBtide, either 50 μM ATP or 2 mM ATP, 60 min at RT
T2 construct: Purified human recombinant kinase full-length AKT1 E17K was expressed in insect cells; made in house; host or cells: insect cells
In short: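 Full-length AKT1 E17K from insect cells, PDPK1-activated, at 0.6 nM with 50 nM Ulight-CREBtide and 50 μM or 2 mM ATP, pH 7.5, 1% DMSO. Enzyme and compound preincubated 15 min, reaction run 60 min at RT; Eu-anti-phospho-CREB (Ser133) TR-FRET 665/620 ratio, 10-point curve, IC50 by 4-parameter fit.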

T1 sequence (P31749 whole entry): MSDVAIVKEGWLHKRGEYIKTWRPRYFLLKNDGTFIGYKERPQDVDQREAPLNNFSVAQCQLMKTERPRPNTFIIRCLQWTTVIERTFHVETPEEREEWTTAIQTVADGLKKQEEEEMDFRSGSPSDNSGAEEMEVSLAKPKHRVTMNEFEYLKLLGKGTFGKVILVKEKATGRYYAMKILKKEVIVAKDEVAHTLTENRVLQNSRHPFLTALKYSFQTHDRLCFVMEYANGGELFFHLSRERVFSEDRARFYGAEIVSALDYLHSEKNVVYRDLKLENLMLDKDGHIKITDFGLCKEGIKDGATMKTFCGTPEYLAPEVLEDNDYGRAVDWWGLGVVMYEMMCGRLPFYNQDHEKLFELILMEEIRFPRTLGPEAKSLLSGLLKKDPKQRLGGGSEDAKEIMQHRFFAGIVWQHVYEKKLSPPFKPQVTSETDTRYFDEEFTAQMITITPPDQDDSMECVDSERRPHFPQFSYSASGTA
T2 sequence (P31749 whole entry E17K): as the sequence (P31749 whole entry) above, with E17K counted along it

| SMILES | IC50 [1] [µM] | IC50 [2] [µM] |
| --- | --- | --- |
| Cc1cc(CN(C)[C@H]2CC[C@@H](C(=O)O)CC2)ccc1-n1c(-c2cccnc2N)nc2ccc(-c3ccccc3)nc21 [Compound I-179] | < 20 | 0.5 to 2 |
| Nc1ncccc1-c1nc2ccc(-c3ccccc3)nc2n1-c1ccc(C2CCN(CC3CCC(C(=O)O)CC3)CC2)cc1 (stereo not drawn) [Compound I-76, 4-((4-(4-(2-(2-aminopyridin-3-yl)-5-phenyl-3H-imidazo[4,5-b]pyridin-3-yl)phenyl)piperidin-1-yl)methyl)cyclohexane-1-carboxylic acid] | < 20 | 0.5 to 2 |
| CC(NC1CCC(C(=O)O)C1)c1ccc(-n2c(-c3cccnc3N)nc3ccc(-c4ccccc4)nc32)cc1F (stereo not drawn) [Compound I-81, 3-((1-(4-(2-(2-aminopyridin-3-yl)-5-phenyl-3H-imidazo[4,5-b]pyridin-3-yl)-2-fluorophenyl)ethyl)amino)cyclopentane-1-carboxylic acid] | < 20 | ≥ 2 |
| CCN(Cc1ccc(-n2c(-c3cccnc3N)nc3ccc(-c4ccccc4)nc32)c(F)c1)[C@H]1CC[C@@H](C(=O)O)CC1 [Compound I-162] | < 20 | ≥ 2 |
| Cc1cc(C2CN(C[C@H]3CC[C@H](C(=O)O)CC3)C2)ccc1-n1c(-c2cccnc2N)nc2ccc(-c3ccccc3)nc21 [Compound I-139, (1r,4r)-4-((3-(4-(2-(2-aminopyridin-3-yl)-5-phenyl-3H-imidazo[4,5-b]pyridin-3-yl)-3-methylphenyl)azetidin-1-yl)methyl)cyclohexane-1-carboxylic acid] | < 20 | < 0.5 |
| CC(C)(C)c1ccc2nc(-c3cccnc3N)n(-c3ccc(NC(=O)[C@H]4CC[C@H](C(=O)O)CC4)nc3)c2c1 [Compound I-117, (1r,4r)-4-((5-(2-(2-aminopyridin-3-yl)-6-(tert-butyl)-1H-benzo[d]imidazol-1-yl)pyridin-2-yl)carbamoyl)cyclohexane-1-carboxylic acid] | < 20 | ≥ 2 |
| Nc1ncccc1-c1nc2ccc(-c3ccccc3)nc2n1-c1ccc(NCC2CCC(C(=O)O)CC2)nc1 (stereo not drawn) [Compound I-12, 4-(((5-(2-(2-aminopyridin-3-yl)-5-phenyl-3H-imidazo[4,5-b]pyridin-3-yl)pyridin-2-yl)amino)methyl)cyclohexane-1-carboxylic acid] | < 20 | < 0.5 |
| Nc1ncccc1-c1nc2ccc(OC(F)(F)F)cc2n1-c1ccc(NC(=O)[C@H]2CC[C@H](C(=O)O)CC2)nc1 [Compound I-123, (1r,4r)-4-((5-(2-(2-aminopyridin-3-yl)-6-(trifluoromethoxy)-1H-benzo[d]imidazol-1-yl)pyridin-2-yl)carbamoyl)cyclohexane-1-carboxylic acid] | < 20 | ≥ 2 |
| Nc1ncccc1-c1nc2ccc(-c3ccccc3)nc2n1-c1ccc(CN[C@H]2CC[C@@H](C(=O)O)CC2)cc1 [Compound I-91, (1s,4s)-4-((4-(2-(2-aminopyridin-3-yl)-5-phenyl-3H-imidazo[4,5-b]pyridin-3-yl)benzyl)amino)cyclohexane-1-carboxylic acid] | < 20 | < 0.5 |
| Cc1nc(NC(=O)C2CC3(CC(C(=O)O)C3)C2)ccc1-n1c(-c2cccnc2N)nc2ccc(-c3ccccc3)nc21 (stereo not drawn) [Compound I-125, 6-((5-(2-(2-aminopyridin-3-yl)-5-phenyl-3H-imidazo[4,5-b]pyridin-3-yl)-6-methylpyridin-2-yl)carbamoyl)spiro[3.3]heptane-2-carboxylic acid] | < 20 | < 0.5 |
| Nc1ncccc1-c1nc2ccc(-c3ccccc3)nc2n1-c1ccc(CN2CCC(CC(=O)O)CC2)cc1 [Compound I-97, 2-(1-(4-(2-(2-aminopyridin-3-yl)-5-phenyl-3H-imidazo[4,5-b]pyridin-3-yl)benzyl)piperidin-4-yl)acetic acid] | < 20 | 0.5 to 2 |
| Nc1ncccc1-c1nc2ccc(-c3ccccc3)nc2n1-c1ccc(C2CCN(C(=O)[C@H]3CC[C@H](C(=O)O)CC3)CC2)cc1 [Compound I-198] | < 20 | < 0.5 |
| CC(c1ccc(-n2c(-c3cccnc3N)nc3ccc(-c4ccccc4)nc32)cc1)N1CCC(C(=O)O)C1 (stereo not drawn) [Compound I-84, 1-(1-(4-(2-(2-aminopyridin-3-yl)-5-phenyl-3H-imidazo[4,5-b]pyridin-3-yl)phenyl)ethyl)pyrrolidine-3-carboxylic acid] | < 20 | ≥ 2 |
| Cc1cc(C2CN(CC3CC4(C3)CC(C(=O)O)C4)C2)ccc1-n1c(-c2cccnc2N)nc2ccc(-c3ccccc3)nc21 (stereo not drawn) [Compound I-204] | < 20 | < 0.5 |
| Cc1cc(C2CN(C[C@H]3CC[C@H](C(=O)O)CC3)C2)ccc1-n1c(-c2cccnc2N)nc2ccc(-c3ccccc3F)nc21 [Compound I-209] | < 20 | 0.5 to 2 |
| Cc1nc(NCC2CC3(C2)CC(C(=O)O)C3)ccc1-n1c(-c2cccnc2N)nc2ccc(-c3ccccc3)nc21 (stereo not drawn) [Compound I-225] | < 20 | < 0.5 |
| Nc1ncccc1-c1nc2ccc(-c3ccccc3)nc2n1-c1ccc(NC(=O)C2CCC(C(=O)O)C2)cc1 (stereo not drawn) [Compound I-1, 3-((4-(2-(2-aminopyridin-3-yl)-5-phenyl-3H-imidazo[4,5-b]pyridin-3-yl)phenyl)carbamoyl)cyclopentane-1-carboxylic acid] | < 20 | < 0.5 |
| Nc1ncccc1-c1nc2ccc(-c3ccccc3)nc2n1-c1ccc(CCN2CCC(C(=O)O)C2)cc1 (stereo not drawn) [Compound I-159] | < 20 | < 0.5 |
| Nc1ncccc1-c1nc2ccc(-c3ccccc3)nc2n1-c1ccc(C2CN(CC34CCC(C(=O)O)(CC3)CC4)C2)cc1 [Compound I-146] | < 20 | < 0.5 |
| Nc1ncccc1-c1nc2ccc(-c3ccccc3F)nc2n1-c1ccc([C@@H]2CCN(C[C@H]3CC[C@@H](C(=O)O)CC3)C2)cc1 (single isomer, unassigned) [Compound I-229] | < 20 | 0.5 to 2 |
| Cc1nc(NC(=O)[C@H]2CC[C@H](C(=O)O)CC2)ccc1-n1c(-c2cccnc2N)nc2ccc(-c3ccccc3)cc21 [Compound I-127, (1r,4r)-4-((5-(2-(2-aminopyridin-3-yl)-6-phenyl-1H-benzo[d]imidazol-1-yl)-6-methylpyridin-2-yl)carbamoyl)cyclohexane-1-carboxylic acid] | < 20 | 0.5 to 2 |
| Nc1ncccc1-c1nc2ccc(-c3ccccc3)nc2n1-c1ccc(C2CN(CC3CC4CC(C(=O)O)CC4C3)C2)cc1 (stereo not drawn) [Compound I-151] | < 20 | < 0.5 |
| Cc1nc(-n2c(-c3cccnc3N)nc3ccc(-c4ccccc4)nc32)ccc1NC(=O)C1CC2(CC(C(=O)O)C2)C1 (stereo not drawn) [Compound I-126, 6-((6-(2-(2-aminopyridin-3-yl)-5-phenyl-3H-imidazo[4,5-b]pyridin-3-yl)-2-methylpyridin-3-yl)carbamoyl)spiro[3.3]heptane-2-carboxylic acid] | < 20 | ≥ 2 |
| Nc1ncccc1-c1nc2ccc(-c3ccccc3)nc2n1-c1ccc(C2CN(C[C@@H]3CC4CC3CC4C(=O)O)C2)cc1 (stereo partly drawn) [Compound I-150] | < 20 | < 0.5 |
| CC(C(=O)O)C1CCN(c2ccc(-n3c(-c4cccnc4N)nc4ccc(-c5ccccc5)nc43)cn2)C1 (stereo not drawn) [Compound I-26, 2-(1-(5-(2-(2-aminopyridin-3-yl)-5-phenyl-3H-imidazo[4,5-b]pyridin-3-yl)pyridin-2-yl)pyrrolidin-3-yl)propanoic acid] | < 20 | ≥ 2 |
| Nc1ncccc1-c1nc2ccc(-c3ccccc3)nc2n1-c1ccc(C2CCN(C(=O)[C@H]3CC[C@@H](C(=O)O)CC3)CC2)cc1 [Compound I-199] | < 20 | < 0.5 |
| CC(c1ccc(-n2c(-c3cccnc3N)nc3ccc(-c4ccccc4)nc32)cc1)N1CCC(C(=O)O)CC1 (stereo not drawn) [Compound I-79, 1-(1-(4-(2-(2-aminopyridin-3-yl)-5-phenyl-3H-imidazo[4,5-b]pyridin-3-yl)phenyl)ethyl)piperidine-4-carboxylic acid] | < 20 | ≥ 2 |
| Cc1nc(-n2c(-c3cccnc3N)nc3ccc(-c4ccccn4)cc32)ccc1NC(=O)[C@H]1CC[C@H](C(=O)O)CC1 [Compound I-133, (1r,4r)-4-((6-(2-(2-aminopyridin-3-yl)-6-(pyridin-2-yl)-1H-benzo[d]imidazol-1-yl)-2-methylpyridin-3-yl)carbamoyl)cyclohexane-1-carboxylic acid] | < 20 | ≥ 2 |
| CC(C)(C(=O)O)[C@@H]1CCN(Cc2ccc(-n3c(-c4cccnc4N)nc4ccc(-c5ccccc5)nc43)cc2)C1 (stereo in doubt) [Compound I-174] | < 20 | 0.5 to 2 |
| Nc1ncccc1-c1nc2ccc(-c3ccccc3)cc2n1-c1ccc(NC(=O)C2CCC(C(=O)O)C2)nc1 (stereo not drawn) [Compound I-110, 3-((5-(2-(2-aminopyridin-3-yl)-6-phenyl-1H-benzo[d]imidazol-1-yl)pyridin-2-yl)carbamoyl)cyclopentane-1-carboxylic acid] | < 20 | ≥ 2 |
